Values of other authors as cited in patent publication US20190124865A1, “APPARATUS AND METHOD FOR INACTIVATING PLANT PATHOGENS WHILE STIMULATING PLANT GROWTH VIA SELECTIVE APPLICATION OF OXYGEN/OZONE GAS MIXTURES, AND CARBON DIOXIDE, IN A MULTI COMPARTMENT SYSTEM” (priority 2017, published 2019).

Experiments:
plants = settings: 30% increase in ambient carbon dioxide, in the order of 100 ppm to 150 ppm
fungal species = settings: ozone 5% by volume, given time
Aeromonas hydrophilia = settings: ozone 5% per volume admixed with oxygen
coliform bacteria = settings: ozone 5% per volume admixed with oxygen
[1] = gaseous milieu, room temperature
staphylococcus aureus = settings: ozone 5% per volume admixed with oxygen

SMILES | increase in plant growth (plants) [%] | effect on fungal species (fungal species) | inactivation of Aeromonas hydrophilia (Aeromonas hydrophilia) | inactivation of coliform bacteria (coliform bacteria) | rate of reversion to pure oxygen [1] | inactivation of staphylococcus aureus (staphylococcus aureus)
O=C=O [carbon dioxide] | 30 | – | – | – | – | –
O=[O+][O-] [Ozone, ozone] | – | inexorable distress to any and all fungal species, leading to their demise | rapidly inactivates | rapidly inactivates | about 50 % per hour | rapidly inactivates
